Test [1] deals with HEK293. The test is described as follows: NOD1 signaling inhibitors, primary screen, cell-based, luminescence, uHTS (AID 1578). In kind it is functional. The note with it: Homo sapiens.
The nature of test [2]: growth suppression of beta-catenin-knockout colon cells, dose response, cell-based, HCT116, human colon tumor (AID 1045).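 Also: HCT116 colon tumor cells with beta catenin knocked out; cells exposed to compound for 60 hours.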 Type of test: functional.
In test [3] the target is Nucleotide-binding oligomerization domain-containing protein 2 (Homo sapiens, UniProt Q9HC29). The test is described as follows: PubChem AID 2334. In kind it is functional.
Nucleotide-binding oligomerization domain-containing protein 2, sequence (Q9HC29 whole entry, the tested form may be a part): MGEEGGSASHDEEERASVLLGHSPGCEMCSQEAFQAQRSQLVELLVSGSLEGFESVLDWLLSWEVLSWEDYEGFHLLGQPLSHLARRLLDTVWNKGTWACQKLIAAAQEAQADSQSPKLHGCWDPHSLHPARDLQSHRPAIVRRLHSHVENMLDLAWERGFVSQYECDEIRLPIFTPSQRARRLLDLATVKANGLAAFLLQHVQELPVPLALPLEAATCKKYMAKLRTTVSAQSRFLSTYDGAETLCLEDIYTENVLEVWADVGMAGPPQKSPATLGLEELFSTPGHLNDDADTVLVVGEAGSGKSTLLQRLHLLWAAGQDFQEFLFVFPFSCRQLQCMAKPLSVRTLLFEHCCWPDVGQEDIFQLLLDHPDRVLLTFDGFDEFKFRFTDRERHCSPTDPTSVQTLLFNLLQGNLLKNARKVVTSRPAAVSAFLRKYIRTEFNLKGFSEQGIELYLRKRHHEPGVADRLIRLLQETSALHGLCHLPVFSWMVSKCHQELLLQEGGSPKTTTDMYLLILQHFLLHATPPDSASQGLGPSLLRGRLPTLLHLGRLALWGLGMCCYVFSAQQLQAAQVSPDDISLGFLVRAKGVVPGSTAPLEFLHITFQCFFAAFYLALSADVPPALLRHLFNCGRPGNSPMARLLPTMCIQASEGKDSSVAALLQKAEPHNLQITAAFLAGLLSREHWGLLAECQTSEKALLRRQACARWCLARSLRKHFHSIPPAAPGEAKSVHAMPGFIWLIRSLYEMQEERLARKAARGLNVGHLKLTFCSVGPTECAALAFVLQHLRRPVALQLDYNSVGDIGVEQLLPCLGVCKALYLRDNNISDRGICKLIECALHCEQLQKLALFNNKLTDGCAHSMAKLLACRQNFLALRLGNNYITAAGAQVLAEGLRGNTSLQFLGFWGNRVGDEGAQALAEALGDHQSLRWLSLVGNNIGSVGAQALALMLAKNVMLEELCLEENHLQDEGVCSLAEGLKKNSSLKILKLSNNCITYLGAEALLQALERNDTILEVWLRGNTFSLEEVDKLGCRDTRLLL
A further test deals with Tumor necrosis factor (Homo sapiens, UniProt P01375). The experiment in a line: TNFa-triggered NF-kB activation inhibitors, SAR follow-up, cell-based, revised (AID 2337). Type of test: functional.
Tumor necrosis factor, sequence (P01375 whole entry): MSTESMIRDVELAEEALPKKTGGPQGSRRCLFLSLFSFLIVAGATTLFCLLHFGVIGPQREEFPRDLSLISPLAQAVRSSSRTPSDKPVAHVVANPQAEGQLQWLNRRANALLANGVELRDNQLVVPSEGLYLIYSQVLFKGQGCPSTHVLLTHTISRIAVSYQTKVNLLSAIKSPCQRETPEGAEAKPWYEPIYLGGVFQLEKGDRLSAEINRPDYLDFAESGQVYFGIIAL
The subject of test [4] is HEK293. The test is described as follows: cells. The note with it: Homo sapiens.
Test [5] concerns HEK293. The test is described as follows: cells. The note with it: Homo sapiens. Type of test: functional, cell-based.
Test [6] can be described thus: growth suppression of PTEN-null colon cells, dose response, cell-based, HCT116 PTEN knockout (AID 1047).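 Also: HCT116 colon tumor cells with PTEN knocked out; cells exposed to compound for 60 hours before readout; potency for loss of cell viability measured by luminescence.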 Type of test: functional.
Test [7] relates to HEK293. The test is described as follows: NOD2 signaling inhibitors in MDP-stimulated cells, cell-based, uHTS, luminescence (AID 2001). Type of test: functional. The note with it: Homo sapiens.
Test [8] addresses Nucleotide-binding oligomerization domain-containing protein 1 (Homo sapiens, UniProt Q9Y239). The experiment in a line: NOD1 signaling inhibitors, SAR follow-up, revised (AID 2333). In kind it is functional.
Test [9] concerns HEK293. The experiment in a line: cells. Type of test: functional, cell-based. Particulars: Homo sapiens. This is another data set of the same source.
Test [10] concerns the target G-protein coupled receptor 55 (Homo sapiens, UniProt Q9Y2T6). The test is described as follows: GPR55 antagonists, SAR follow-up, counter-screen for GPR35 antagonist project, imaging, image-based (AID 2397). Type of test: functional. For orientation: A counterscreen serves to expose hits that act by an unwanted route or on another target.
In test [11] the target is T1, Tyrosine-protein phosphatase non-receptor type 7 (Homo sapiens, UniProt P35236).
T1 sequence (P35236 whole entry): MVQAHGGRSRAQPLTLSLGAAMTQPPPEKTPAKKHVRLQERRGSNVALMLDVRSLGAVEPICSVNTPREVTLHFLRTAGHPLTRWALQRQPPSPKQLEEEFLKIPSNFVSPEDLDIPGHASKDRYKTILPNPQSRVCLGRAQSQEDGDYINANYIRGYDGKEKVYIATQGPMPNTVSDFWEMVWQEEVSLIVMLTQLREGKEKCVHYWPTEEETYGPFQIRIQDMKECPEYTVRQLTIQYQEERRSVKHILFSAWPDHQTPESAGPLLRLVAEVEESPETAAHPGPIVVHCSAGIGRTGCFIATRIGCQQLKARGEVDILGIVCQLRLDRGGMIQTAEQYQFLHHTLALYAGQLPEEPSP
Type of test: functional.

In test [12] the target is T2, Tyrosine-protein phosphatase non-receptor type 22 (Homo sapiens, UniProt Q9Y2R2).
T2 sequence (Q9Y2R2 whole entry): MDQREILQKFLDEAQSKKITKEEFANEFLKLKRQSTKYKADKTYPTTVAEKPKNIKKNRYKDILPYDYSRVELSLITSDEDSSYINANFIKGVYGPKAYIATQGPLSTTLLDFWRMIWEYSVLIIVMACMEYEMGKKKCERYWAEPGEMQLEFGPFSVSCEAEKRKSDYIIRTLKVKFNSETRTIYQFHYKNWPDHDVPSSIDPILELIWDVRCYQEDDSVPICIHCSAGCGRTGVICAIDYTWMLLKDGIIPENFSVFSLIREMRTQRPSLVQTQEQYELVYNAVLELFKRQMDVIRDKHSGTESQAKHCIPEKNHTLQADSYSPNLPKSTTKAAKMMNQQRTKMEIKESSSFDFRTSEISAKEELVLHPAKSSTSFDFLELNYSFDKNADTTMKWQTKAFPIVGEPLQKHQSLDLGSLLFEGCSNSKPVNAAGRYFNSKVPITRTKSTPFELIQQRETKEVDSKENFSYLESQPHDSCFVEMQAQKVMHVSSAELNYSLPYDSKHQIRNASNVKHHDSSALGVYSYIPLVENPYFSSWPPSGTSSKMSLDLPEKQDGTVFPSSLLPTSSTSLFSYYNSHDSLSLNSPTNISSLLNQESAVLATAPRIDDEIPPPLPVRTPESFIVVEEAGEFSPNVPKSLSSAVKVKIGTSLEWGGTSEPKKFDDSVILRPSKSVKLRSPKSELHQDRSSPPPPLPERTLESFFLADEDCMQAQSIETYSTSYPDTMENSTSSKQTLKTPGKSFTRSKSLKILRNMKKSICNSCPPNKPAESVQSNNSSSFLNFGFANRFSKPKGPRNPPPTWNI
Type of test: functional.

For test [13], the target named is T2, Tyrosine-protein phosphatase non-receptor type 22. Type of test: functional. The source holds these as a separate data set.
Test [14] has as its target Lysine-specific demethylase 4C (Homo sapiens, UniProt Q9H3R0). The experiment in a line: GASC-1 (JMJD2C) histone demethylase inhibitors, dose response, biochemical, DELFIA europium, cherry-picked samples (AID 488835). Type of test: functional.
For test [15], the target named is Intestinal-type alkaline phosphatase (Homo sapiens, UniProt P09923). The test is described as follows: inhibition of human intestinal alkaline phosphatase – biochemical, dose response (AID 488876). In kind it is functional.
Intestinal-type alkaline phosphatase (Homo sapiens, UniProt P09923), sequence (P09923 whole entry): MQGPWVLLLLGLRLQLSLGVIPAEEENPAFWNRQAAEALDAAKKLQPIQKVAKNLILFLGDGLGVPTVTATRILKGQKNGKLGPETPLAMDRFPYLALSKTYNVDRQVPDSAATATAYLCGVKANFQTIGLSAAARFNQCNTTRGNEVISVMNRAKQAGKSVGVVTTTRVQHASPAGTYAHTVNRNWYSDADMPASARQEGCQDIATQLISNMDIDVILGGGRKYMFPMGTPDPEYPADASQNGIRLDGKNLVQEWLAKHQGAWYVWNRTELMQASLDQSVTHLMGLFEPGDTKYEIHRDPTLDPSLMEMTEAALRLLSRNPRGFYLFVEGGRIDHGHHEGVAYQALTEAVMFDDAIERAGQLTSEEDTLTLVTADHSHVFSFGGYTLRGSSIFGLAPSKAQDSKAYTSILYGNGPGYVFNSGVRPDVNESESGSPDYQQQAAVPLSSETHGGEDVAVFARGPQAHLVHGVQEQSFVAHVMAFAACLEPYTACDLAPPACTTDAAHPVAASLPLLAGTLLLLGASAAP
For test [16], the target named is Intestinal-type alkaline phosphatase (Mus musculus, UniProt P24822). The test is described as follows: PubChem AID 488785. Type of test: functional.
Intestinal-type alkaline phosphatase (Mus musculus, UniProt P24822), sequence (P24822 whole entry): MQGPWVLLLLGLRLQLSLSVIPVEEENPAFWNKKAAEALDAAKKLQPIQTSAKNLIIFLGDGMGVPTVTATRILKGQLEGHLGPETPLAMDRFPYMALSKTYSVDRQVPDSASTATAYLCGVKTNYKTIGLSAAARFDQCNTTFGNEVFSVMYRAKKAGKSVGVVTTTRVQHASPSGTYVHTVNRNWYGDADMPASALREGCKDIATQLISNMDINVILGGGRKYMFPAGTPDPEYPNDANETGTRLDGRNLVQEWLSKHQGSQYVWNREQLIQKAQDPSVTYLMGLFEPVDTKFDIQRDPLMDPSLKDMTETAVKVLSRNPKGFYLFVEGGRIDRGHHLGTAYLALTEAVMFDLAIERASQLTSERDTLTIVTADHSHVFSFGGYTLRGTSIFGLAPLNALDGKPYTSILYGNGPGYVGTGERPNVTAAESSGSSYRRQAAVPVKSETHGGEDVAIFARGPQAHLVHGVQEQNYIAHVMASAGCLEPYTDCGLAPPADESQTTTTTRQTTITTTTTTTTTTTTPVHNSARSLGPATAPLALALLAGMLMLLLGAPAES
The target in test [17] is T3, Alkaline phosphatase, tissue-nonspecific isozyme (Homo sapiens, UniProt P05186).
T3 sequence (P05186 whole entry): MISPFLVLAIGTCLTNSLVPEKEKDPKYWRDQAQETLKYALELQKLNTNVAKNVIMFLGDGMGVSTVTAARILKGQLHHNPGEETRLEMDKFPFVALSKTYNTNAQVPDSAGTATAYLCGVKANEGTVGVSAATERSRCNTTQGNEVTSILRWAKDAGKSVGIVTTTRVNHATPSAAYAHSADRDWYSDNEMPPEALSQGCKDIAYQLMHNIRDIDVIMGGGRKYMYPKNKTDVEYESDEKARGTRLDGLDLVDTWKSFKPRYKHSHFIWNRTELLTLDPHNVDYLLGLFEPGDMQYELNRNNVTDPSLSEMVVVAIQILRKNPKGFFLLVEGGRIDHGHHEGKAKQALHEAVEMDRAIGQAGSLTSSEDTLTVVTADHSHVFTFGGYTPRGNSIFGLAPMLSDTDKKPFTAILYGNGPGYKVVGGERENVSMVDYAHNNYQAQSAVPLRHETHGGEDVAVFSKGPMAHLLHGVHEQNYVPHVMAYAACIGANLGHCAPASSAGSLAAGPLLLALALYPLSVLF
The experiment in a line: TNAP enzyme inhibition by screening hits, dose response, selectivity assay for mouse IAP inhibitor project, biochemical, human TNAP, uHTS hits (AID 488906). Type of test: functional.

Calls of active or inactive are those of the source. Rule as the data show it, for most assays here: actives have a measured IC50 and inactives only a lower limit. Where only a bound is given, the exact number is not on record here.

G-protein coupled receptor 55, sequence (Q9Y2T6 whole entry): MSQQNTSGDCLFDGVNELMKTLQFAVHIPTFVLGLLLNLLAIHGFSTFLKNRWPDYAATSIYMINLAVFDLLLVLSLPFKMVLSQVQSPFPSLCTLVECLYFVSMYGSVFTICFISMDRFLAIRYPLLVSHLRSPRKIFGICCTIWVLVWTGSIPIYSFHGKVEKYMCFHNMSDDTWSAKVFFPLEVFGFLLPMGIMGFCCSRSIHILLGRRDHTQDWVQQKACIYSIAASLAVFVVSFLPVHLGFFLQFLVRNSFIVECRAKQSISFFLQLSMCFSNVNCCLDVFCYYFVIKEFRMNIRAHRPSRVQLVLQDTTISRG
Lysine-specific demethylase 4C, sequence (Q9H3R0 whole entry): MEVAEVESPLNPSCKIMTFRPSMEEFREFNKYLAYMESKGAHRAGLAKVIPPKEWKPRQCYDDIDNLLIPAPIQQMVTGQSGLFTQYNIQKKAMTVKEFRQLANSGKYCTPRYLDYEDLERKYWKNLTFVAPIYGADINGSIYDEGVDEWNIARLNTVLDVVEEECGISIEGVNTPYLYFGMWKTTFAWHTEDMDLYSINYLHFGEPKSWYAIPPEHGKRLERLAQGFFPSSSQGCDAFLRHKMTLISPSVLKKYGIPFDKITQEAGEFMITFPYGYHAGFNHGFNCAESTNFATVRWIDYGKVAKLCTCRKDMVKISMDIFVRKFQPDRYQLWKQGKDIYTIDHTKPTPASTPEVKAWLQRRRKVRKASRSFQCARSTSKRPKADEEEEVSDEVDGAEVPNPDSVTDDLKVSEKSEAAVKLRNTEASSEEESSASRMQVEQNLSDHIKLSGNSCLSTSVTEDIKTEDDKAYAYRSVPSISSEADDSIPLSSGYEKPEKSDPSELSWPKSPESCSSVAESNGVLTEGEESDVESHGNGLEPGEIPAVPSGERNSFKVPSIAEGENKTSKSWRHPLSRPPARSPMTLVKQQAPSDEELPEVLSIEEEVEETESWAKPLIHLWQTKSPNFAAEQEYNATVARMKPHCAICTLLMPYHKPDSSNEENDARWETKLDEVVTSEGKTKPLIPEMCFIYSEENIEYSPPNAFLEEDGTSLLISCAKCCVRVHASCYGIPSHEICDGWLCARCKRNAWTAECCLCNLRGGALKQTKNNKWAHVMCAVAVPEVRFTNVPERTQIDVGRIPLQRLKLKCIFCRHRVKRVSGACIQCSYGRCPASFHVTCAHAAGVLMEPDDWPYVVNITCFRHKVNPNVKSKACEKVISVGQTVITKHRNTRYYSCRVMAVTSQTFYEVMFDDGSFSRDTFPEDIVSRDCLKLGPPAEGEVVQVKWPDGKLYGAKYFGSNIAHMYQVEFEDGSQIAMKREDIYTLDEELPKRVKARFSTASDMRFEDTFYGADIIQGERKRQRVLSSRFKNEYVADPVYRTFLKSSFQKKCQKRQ
Nucleotide-binding oligomerization domain-containing protein 1, sequence (Q9Y239 whole entry, the tested form may be a part): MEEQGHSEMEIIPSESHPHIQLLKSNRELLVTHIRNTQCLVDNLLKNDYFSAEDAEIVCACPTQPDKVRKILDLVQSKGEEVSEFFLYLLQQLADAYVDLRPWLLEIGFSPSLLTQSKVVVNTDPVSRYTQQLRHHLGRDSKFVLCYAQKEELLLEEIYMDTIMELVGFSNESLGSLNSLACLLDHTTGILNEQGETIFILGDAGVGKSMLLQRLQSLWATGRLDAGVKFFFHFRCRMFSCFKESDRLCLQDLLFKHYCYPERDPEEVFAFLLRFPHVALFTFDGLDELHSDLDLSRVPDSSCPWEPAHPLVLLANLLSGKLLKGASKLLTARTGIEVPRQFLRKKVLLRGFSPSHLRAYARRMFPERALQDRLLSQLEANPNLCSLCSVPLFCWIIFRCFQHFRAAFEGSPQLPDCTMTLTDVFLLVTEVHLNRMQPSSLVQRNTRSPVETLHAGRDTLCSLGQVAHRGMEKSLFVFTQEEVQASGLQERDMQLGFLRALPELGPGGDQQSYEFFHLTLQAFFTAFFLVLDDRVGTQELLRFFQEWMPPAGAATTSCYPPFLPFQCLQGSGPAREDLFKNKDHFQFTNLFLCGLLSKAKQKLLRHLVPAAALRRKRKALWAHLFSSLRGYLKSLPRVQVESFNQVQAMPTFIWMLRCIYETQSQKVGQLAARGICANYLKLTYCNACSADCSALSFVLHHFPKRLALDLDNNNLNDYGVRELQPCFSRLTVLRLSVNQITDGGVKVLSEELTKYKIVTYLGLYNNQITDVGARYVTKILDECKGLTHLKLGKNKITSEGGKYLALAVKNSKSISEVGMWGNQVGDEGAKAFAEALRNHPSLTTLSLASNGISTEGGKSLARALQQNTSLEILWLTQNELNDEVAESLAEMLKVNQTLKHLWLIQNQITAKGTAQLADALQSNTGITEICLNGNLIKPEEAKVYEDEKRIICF

As for `Cc1cccc(-n2nc3c4c(ccc3c2O)C(=O)c2ccccc2C4=O)c1`, the EC50 in the test on HEK293 [1] was 8.5 µM (active); in test [2], 30 µM (active); in test [6], 114 µM (active). The IC50 is 17.8 µM (active) in test [3]; 16.3 µM (active) at Tumor necrosis factor; > 20 µM (inactive) in the test with HEK293 [4]; > 20 µM (inactive) with HEK293 [5]; > 20 µM (inactive) in the test on HEK293 [7]; 17.1 µM (active) in test [8]. For the same compound, in the test on HEK293 [9], the IC50 was > 20 µM (inactive).

Regarding `Cc1ccccc1OCCC(=O)NCCc1ccc(S(N)(=O)=O)cc1`, the IC50 in test [10] is > 32 µM (inactive).

On to `Cc1ccccc1Cn1cc(NC(=O)c2nn(C)cc2Cl)cn1`, for which the IC50 in test [11], in test [12] and in test [13] was > 79.4 µM (inactive) each time.

Take `CC(C)CCN(C(=O)C1=COCCO1)c1c(N)n(Cc2ccccc2)c(=O)[nH]c1=O`: the half-maximal activity concentration (AC50) in test [14] was 20.6 µM (active).

As to `CC(C)(C)c1ccc(O)c(/N=C/c2cc3c(cc2[N+](=O)[O-])OCO3)c1`, the IC50 was > 100 µM (inactive) in [15], 6.39 µM (active) in test [16] and > 100 µM (inactive) in test [17].

Usually EC50 stands for the concentration needed to bring the measured effect to its halfway point. One may read the IC50 as the concentration that inhibits the measured activity by half. What is called AC50 is the concentration at which the activity in the assay is half-maximal.

Values taken from ChEMBL document CHEMBL1201862, “PubChem BioAssay data set” (2004).
